Test results as given in BindingDB's records for doi:10.1124/mol.58.6.1601 (University of California Irvine, 2000).

How the values were obtained:
[1] = target: T1, Cysteinyl leukotriene receptor 1 (Homo sapiens, UniProt Q9Y271)
T1 sequence (Q9Y271 whole entry): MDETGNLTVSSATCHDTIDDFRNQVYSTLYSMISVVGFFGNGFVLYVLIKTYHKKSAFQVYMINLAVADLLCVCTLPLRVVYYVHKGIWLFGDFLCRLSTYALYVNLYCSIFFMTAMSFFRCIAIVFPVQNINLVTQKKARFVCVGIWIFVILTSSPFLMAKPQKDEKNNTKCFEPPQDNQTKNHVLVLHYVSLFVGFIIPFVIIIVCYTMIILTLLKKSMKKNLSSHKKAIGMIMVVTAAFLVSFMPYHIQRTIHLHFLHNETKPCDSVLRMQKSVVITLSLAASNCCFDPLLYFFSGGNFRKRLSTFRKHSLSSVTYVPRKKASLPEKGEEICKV

[2] = target: T2, Cysteinyl leukotriene receptor 2 (Homo sapiens, UniProt Q9NS75)
T2 sequence (Q9NS75 whole entry): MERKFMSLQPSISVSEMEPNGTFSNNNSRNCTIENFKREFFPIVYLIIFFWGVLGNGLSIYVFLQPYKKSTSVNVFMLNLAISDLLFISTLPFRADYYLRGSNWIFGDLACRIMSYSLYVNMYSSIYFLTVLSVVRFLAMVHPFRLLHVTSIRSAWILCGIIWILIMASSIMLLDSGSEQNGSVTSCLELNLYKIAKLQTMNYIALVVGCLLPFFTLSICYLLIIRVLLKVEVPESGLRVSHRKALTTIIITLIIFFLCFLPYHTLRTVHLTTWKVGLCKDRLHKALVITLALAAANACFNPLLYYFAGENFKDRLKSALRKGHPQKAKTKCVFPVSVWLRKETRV

SMILES | Ki [1] [µM] | Ki [2] [µM]
CN(C)C(=O)CCSC(SCCC(=O)O)c1cccc(/C=C/c2ccc3ccc(Cl)cc3n2)c1 (stereo not drawn) [3-(((3-(2-(7-chloroquinoline-2-yl)ethenyl)phenyl)((3-dimethylamino-3-oxopropyl)thio)methyl)thio)propanoic acid] | 0.0104 | 1
CCCCC/C=C\C/C=C/C=C/C=C/[C@@H](Sc1ccc(C(=O)O)cc1)[C@@H](O)CCCC(=O)O [CAS_134733-55-4] |  | 0.3
